Reference: patent publication US20210323981A1, “FREE AMINO COMPOUNDS FOR THE TREATMENT AND PROPHYLAXIS OF BACTERIAL INFECTION” (Hoffmann-La Roche Inc., priority 2018, published 2021)

What was measured:
Type in all cases: cell-based
[1] = tested on: A. baumannii (ATCC17978); test: 50% growth inhibitory concentration (IC50) determination assay, A. baumannii; details: Acinetobacter baumannii, growth inhibition, Iso-Sensitest broth, OD 600 nm over 16 h, <0.098 = detection limit
Protocol: (§1) The in vitro antimicrobial activity of the compounds against S. aureus (ATCC29213), K. pneumoniae (ATCC10031), and A. baumannii (ATCC17978), was determined according to the following procedure: The assay used a 10-points Iso-Sensitest broth medium to measure quantitatively the in vitro activity of the compounds against S. aureus ATCC29213, K. pneumoniae ATCC 10031, and A. baumannii ATCC17978. Stock compounds in DMSO were serially two-fold diluted (range from 50 to 0.097 μM final concentration) in 384 wells microtiter plates and inoculated with 49 μL the bacterial suspension in Iso-Sensitest broth medium to have a final cell concentration of ˜5×10^5 CFU/mL in a final volume/well of 50 μL/well. Microtiter plates were incubated at 35±2° C. Bacterial cell growth was determined with the measurement of optical density at k=600 nm each 20 minutes over a time course of 16 h. Growth inhibition was calculated during the logarithmic growth of the bacterial cells with determination of the concentration inhibiting 50% (IC50) of the growth.

[2] = tested on: K. pneumoniae (ATCC10031); test: 50% growth inhibitory concentration (IC50) determination assay, K. pneumoniae; details: Klebsiella pneumoniae, growth inhibition, Iso-Sensitest broth, OD 600 nm over 16 h, <0.098 μM = detection limit
Protocol: as §1

[3] = tested on: S. aureus (ATCC29213); test: 50% growth inhibitory concentration (IC50) determination assay, S. aureus; details: Staphylococcus aureus, growth inhibition, Iso-Sensitest broth, OD 600 nm over 16 h, <0.098 μM = detection limit
Protocol: as §1

Row | IC50 [1] | IC50 [2] | IC50 [3] | Compound
1 | 3.62 µM | < 0.098 µM | 0.294 µM | CNc1cc(F)c(F)c2c1[nH]c1ncc(-c3cnc4c(c3)c(=O)c(C(=O)O)cn4C)c(N3CCC(CN)C3)c12 (stereo not drawn) [Example 1.11, 6-[4-[3-(Aminomethyl)pyrrolidin-1-yl]-5,6-difluoro-8-(methylamino)-9H-pyrido[2,3-b]indol-3-yl]-1-methyl-4-oxo-1,8-naphthyridine-3-carboxylic acid]
2 | 2.48 µM | < 0.098 µM | 0.342 µM | CNc1cc(F)c(F)c2c1[nH]c1ncc(-c3cnc4c(c3)c(=O)c(C(=O)O)cn4C)c(N3CC4CC4(CN)C3)c12 (stereo not drawn) [Example 1.06, 6-[4-[1-(Aminomethyl)-3-azabicyclo[3.1.0]hexan-3-yl]-5,6-difluoro-8-(methylamino)-9H-pyrido[2,3-b]indol-3-yl]-1-methyl-4-oxo-1,8-naphthyridine-3-carboxylic acid]
3 | 0.0553 µM | < 0.098 µM | < 0.098 µM | CNc1cc(F)c(Cl)c2c1[nH]c1ncc(-c3cnc4c(c3)c(=O)c(C(=O)O)cn4C)c(N3CC[C@@]4(C[C@@H]4N)C3)c12 [Example 4.03, 6-[4-[(2S,3R)-2-amino-5-azaspiro[2.4]heptan-5-yl]-5-chloro-6-fluoro-8-(methylamino)-9H-pyrido[2,3-b]indol-3-yl]-1-methyl-4-oxo-1,8-naphthyridine-3-carboxylic acid]
4 | 0.155 µM | < 0.098 µM | < 0.098 µM | CNc1cc(F)c(F)c2c1[nH]c1ncc(-c3cnc4c(c3)c(=O)c(C(=O)O)cn4C)c(N3CCC4(C[C@@H]4N)C3)c12 (mixture of isomers) [Example 2.01, Trans-6-[4-(2-amino-5-azaspiro[2.4]heptan-5-yl)-5,6-difluoro-8-(methylamino)-9H-pyrido[2,3-b]indol-3-yl]-1-methyl-4-oxo-1,8-naphthyridine-3-carboxylic acid]
5 | 0.0793 µM | < 0.098 µM | < 0.098 µM | CNc1cc(F)c(Cl)c2c1[nH]c1ncc(-c3cnc4c(c3)c(=O)c(C(=O)O)cn4C)c(N3CC[C@]4(C[C@H]4N)C3)c12 [Example 4.04, 6-[4-[(2R,3S)-2-amino-5-azaspiro[2.4]heptan-5-yl]-5-chloro-6-fluoro-8-(methylamino)-9H-pyrido[2,3-b]indol-3-yl]-1-methyl-4-oxo-1,8-naphthyridine-3-carboxylic acid]
6 | 0.0765 µM | < 0.098 µM | < 0.098 µM | CNc1cc(F)c(Cl)c2c1[nH]c1ncc(-c3cnc4c(c3)c(=O)c(C(=O)O)cn4C)c(N3CC[C@@]4(C[C@H]4N)C3)c12 [Example 4.01, 6-[4-[(2R,3R)-2-Amino-5-azaspiro[2.4]heptan-5-yl]-5-chloro-6-fluoro-8-(methylamino)-9H-pyrido[2,3-b]indol-3-yl]-1-methyl-4-oxo-1,8-naphthyridine-3-carboxylic acid]
